Measured values published in PMC9575645 (Signal Transduction and Targeted Therapy, 2022).
Where two headings read alike, the source gives them in different places.

Tests used:
HRT18G = experiment: Cytotoxicity, MTT assay, HRT18G; type: cell-based, human
Experimental: The cytotoxic effects of the chemicals and their solvents were tested by the MTT assay,[44] and its procedure is described in Supplementary Information.
The cytotoxic effects of the chemicals and their solvents used were tested by the MTT assay as described previously.^10 In brief, the chemicals were dissolved in DMSO to a stock concentration of 10 mM, and then freshly serially diluted in serum-free medium before being added to cell culture monolayers. The absorbance was measured using an enzyme-linked immunosorbent assay (ELISA) reader at an optical density (OD) of 570 nm. The percent cell viability was calculated using the following formula, [(ODsample˗ODblank)/(ODcontrol˗ODblank)] × 100%. According to the cell cytotoxicity data, dose-response curves were generated for the calculation of CC50 using GraphPad Prism software version 8.4.2.

SARS-CoV-2 KCDC03 strain = type: in vivo, Syrian hamsters
[1] = In vivo toxicity in hamsters (body weight, gross and histopathological organ changes)
Experimental: Three groups of 3 hamsters were treated intraperitoneally with 20, 40, and 80 mg kg^-1 d^-1 of atglistatin prepared in a 100 μL vehicle [50% PEG400 in water (vol/vol)] Bid with a 12 h interval for four and a half consecutive days, respectively (Table S10). One group of 3 control anesthetized hamsters was administered intraperitoneally with 100 μL vehicle Bid with a 12 h interval for four and a half consecutive days (Table S10).
Histopathological changes in lungs, liver, kidney, heart, and spleen from the experimental mice or hamsters in each experimental group were determined as described elsewhere.^35 Briefly, each sample from the mice or hamsters in each experimental group was fixed in sufficient 10% neutral formalin at 20°C for 3-4 days, washed in tap water, then trimmed, and thereafter processed in the automatic embedding machine for the dehydration and paraffin embedment. Tissue sections, prepared on slides at a thickness of 3 μm by a microtome, were used for hematoxylin and eosin (H&E) staining or IHC as described below. H&E stained sections were observed under light microscopy. The morphological changes to lung, liver, kidney, heart, and spleen tissues were reviewed in a blinded manner as previous described.^35

[2] = tested on: Bovine coronavirus (KWD20); experiment: In vitro antiviral activity against BCoV in HRT-18G cells (CCIF viral yield); type: cell-based; conditions: for IC50: HRT-18G cells
Experimental: Cells were grown in 6- or 12-well plates or 8-well chamber slides to the desired confluency and then washed twice with phosphate-buffered saline (PBS, pH 7.4). They were then mock-inoculated with medium only or virus-inoculated with various multiplicities of infection (MOI): MOI of 0.01 or 1 FFU/cell for IAV, and MOI of 0.01 or 0.1 FFU/cell for SARS-CoV-2, BCoV, PEDV, PRRSV, and PSaV. Thereafter, each inoculum was absorbed for 1 h, and the cells were washed twice with PBS (pH 7.4). As shown in Supplementary Table 4, further treatments and incubations varied dependent on the virus species used. Cells treated with PKA inhibitor H89 (5 μM or 50 μM concentration) or vehicle-treated immediately after absorption of IAV at an MOI of 1 FFU or SARS-CoV-2 at an MOI of 0.1 FFU were incubated for 24 and 36 h, respectively, and each cell lysate was used for the detection of HSL and pHSL by western blot analysis as described below. Cells treated with lipase inhibitors at the median incubation time of IAV or SARS-CoV-2 as described in the above condition were supplemented with LA, OA, or PA at 100 µM concentration and left incubation for further median incubation time. The cells were used to assess levels of intracellular TAGs, cholesterol, FFAs, glycerol, FAO, proinflammatory cytokines as well as viral genome copy numbers and virus titers as described below and in Supplementary Information.
To determine the antiviral effects of chemicals, serial 10-fold dilutions of each cell culture supernatant after three cycles of freezing and thawing cycles were prepared in appropriate medium supplemented with 100 U/mL penicillin and 100 μg/mL streptomycin as described above. To determine the viral infectivity titer in lung tissues from the hamsters challenged with or without SARS-CoV-2, or administered with or without inhibitors as described above, aseptically sampled lungs from five hamsters per group at day five post-virus infection were harvested. Cleared supernatants from lung tissue as produced from IAV-infected mice above were serially tenfold-diluted with virus growth medium. […] The cells were washed twice with PBS (pH 8.0), mounted with 60% glycerol, and observed byr inverted fluorescence microscopy. The number of cells showing a viral antigen-positive signal at the endpoint dilution were counted. IC50 was calculated using GraphPad Prism software version 8.4.2. […] CC50 data from the MTT assay and IC50 from the IF assay were both calculated using GraphPad Prism software version 8.4.2.

[3] = mouse, in vivo, ip

| SMILES | CC50 (HRT18G) [µM] | gross lung lesions (SARS-CoV-2 KCDC03 strain; […], different concentrations (20, 40, 80 mg kg^-1 d^-1)) | FFA and glycerol release from LDs in lungs (SARS-CoV-2 KCDC03 strain; hamster, in vivo) | IFN-α and IFN-β production (SARS-CoV-2 KCDC03 strain; hamster, in vivo) | levels of TNF-α, IL-6, and MCP-1 (SARS-CoV-2 KCDC03 strain; hamster, in vivo) | reduction in lung lesions (SARS-CoV-2 KCDC03 strain; hamster, in vivo) [%] | toxicity, including body weight loss ([1]; 80 mg kg^-1 d^-1 atglistatin and 2.5 mg kg^-1 d^-1 remdesivir, singly or in combination) | gross and histopathological changes in major organs (liver, lung, kidney, heart, spleen) ([1]; 20, 40, or 80 mg kg^-1 d^-1 Bid for 4.5 consecutive days) | overt signs of toxicity, including loss of body weight ([1]; intraperitoneal 80 mg kg^-1 d^-1) | SI (CC50/IC50) [2] | IC50 [2] [µM] | overt signs of toxicity, including loss of body weight [3] |
| --- | --- | --- | --- | --- | --- | --- | --- | --- | --- | --- | --- | --- |
| CN(C)C(=O)Nc1cccc(-c2ccc(N(C)C)cc2)c1 [Atglistatin] | 182 ± 2.6 | improved gross lung lesions in a dose-dependent manner | inhibition of FFA and glycerol release | no effect | reduced | 72 | no toxicity | no gross and histopathological changes | did not induce any overt signs of toxicity | 152 | 1.2 ± 0.04 | – |
| COc1nn(-c2ccc(NC(=O)OCc3ccccc3)c(C)c2)c(=O)o1 [CAY10499] | 104 ± 9.1 | – | – | – | – | – | – | – | – | 14 | 7.3 ± 0.52 | did not induce any overt signs of toxicity |
